Results published in ChEMBL document CHEMBL1201862, “PubChem BioAssay data set” (2004).
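Briefly, cells in 96-well plates were exposed to five compound concentrations for 48 h, and endpoints were estimated by linear interpolation. At the GI50, growth is halved.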 Activity calls are given as the source filed them. No stated cut-off is given here; in the data, active = GI50 up to about 1.1 µM and inactive = higher.

Columns and labels:
Experiment in all cases: NCI anticancer screen, dose series, 48 h
[1] = system: K562
[2] = system: UO-31
[3] = system: HCC 2998
[4] = system: HCT-116
[5] = system: OVCAR-8
[6] = system: IGROV-1
[7] = system: SNB-75
[8] = system: HT-29
[9] = system: SF-295
[10] = system: UACC-62
[11] = system: MDA-MB-231
[12] = system: KM12
[13] = system: RPMI-8226
[14] = system: LOX IMVI
[15] = system: 786-0
[16] = system: HOP-92
[17] = system: NCI-H522
[18] = system: MCF7
[19] = system: SN12C
[20] = system: SF-539

Measured: GI50

O=C(/N=C1/OC(CN2CCOCC2)CN1C(=O)Nc1ccccc1)Nc1ccccc1 (stereo not drawn)
inactive: [1] > 100 µM | [2] > 100 µM | [3] > 100 µM | [4] > 100 µM | [5] > 100 µM | [6] > 100 µM | [7] 54.7 µM | [8] > 100 µM | [9] > 100 µM | [10] > 100 µM | [11] > 100 µM | [12] > 100 µM | [13] > 100 µM | [14] > 100 µM | [15] > 100 µM | [16] 94.6 µM | [17] > 100 µM | [18] > 100 µM | [19] > 100 µM

N#CC(C#N)=C(N)/C(C#N)=C/c1ccc2ccccc2n1
inactive: [1] 32.6 µM | [2] 15.5 µM | [3] 77.3 µM | [4] 15.1 µM | [5] 30.5 µM | [6] 16.9 µM | [7] 25.8 µM | [8] 18.6 µM | [9] 21.3 µM | [10] 18.8 µM | [11] 23.7 µM | [12] 19.5 µM | [13] 36.9 µM | [14] 19.3 µM | [15] 17.9 µM | [16] 18.3 µM | [18] 30.7 µM | [19] 30.1 µM

CC(C)CNP(=O)(NCC(C)C)Oc1ccc(CC(NC(=O)OCc2ccccc2)C(=O)OCc2ccccc2)cc1 (stereo not drawn)
inactive: [1] 20 µM | [2] 20.3 µM | [3] 16.8 µM | [4] 18.7 µM | [5] 17.3 µM | [6] 35.4 µM | [7] 19.5 µM | [8] 17.2 µM | [9] 18.5 µM | [10] 18.5 µM | [11] 17.7 µM | [12] 18.1 µM | [13] 14.5 µM | [14] 16.1 µM | [15] 13.6 µM | [16] 61.4 µM | [17] 13.4 µM | [18] 11.1 µM | [19] 18.8 µM

CCOC(=O)C(C)c1nc2cc(C(F)(F)F)ccc2[nH]c1=O (stereo not drawn)
inactive: [1] 59.8 µM | [2] > 100 µM | [3] > 100 µM | [4] 88.9 µM | [5] > 100 µM | [7] > 100 µM | [8] > 100 µM | [9] 49.2 µM | [10] > 100 µM | [11] > 100 µM | [12] > 100 µM | [13] 51.9 µM | [14] > 100 µM | [15] > 100 µM | [16] 71.1 µM | [18] > 100 µM | [20] > 100 µM | [19] > 100 µM

c1ccc(COc2nc3cc(C45CC6CC(CC(C6)C4)C5)ccc3[nH]2)cc1
inactive: [1] 1.19 µM | [2] 6.22 µM | [3] 9.68 µM | [4] 9.08 µM | [5] 18 µM | [6] 13.6 µM | [7] 29.6 µM | [8] 3.53 µM | [9] 6.7 µM | [10] 7.13 µM | [11] 21.8 µM | [12] 15.5 µM | [13] 5.07 µM | [14] 12.1 µM | [15] 14.9 µM | [16] 7.29 µM | [17] 3.42 µM | [18] 4.7 µM | [19] 18.5 µM

CC(=O)NC1C(OCc2ccccc2)OC(CO)C(O)C1OCC(=O)NC(C(=O)NC(CCC(=O)NCCCCCC(=O)Nc1ccc2c(c1)CN1C(=O)c3ccccc3C1=N2)C(N)=O)C(C)C (stereo not drawn)
inactive: [1] 36 µM | [2] 47.4 µM | [3] 35.6 µM | [4] 36.2 µM | [5] 26.4 µM | [6] 20.3 µM | [7] 22 µM | [8] 42.8 µM | [9] 24.7 µM | [10] 20.9 µM | [11] 25.5 µM | [12] 19.1 µM | [13] 97.7 µM | [14] 34.4 µM | [15] 16.4 µM | [16] 95.7 µM | [18] 16.9 µM | [20] 19.1 µM | [19] > 100 µM

CCN1c2cc(Br)cc3[nH]c(=O)n(c23)CCC1C (stereo not drawn)
inactive: [1] 5.58 µM | [2] 14 µM | [3] 15.6 µM | [4] 14.8 µM | [5] 14.4 µM | [6] 13.9 µM | [7] 12.3 µM | [8] 15.6 µM | [9] 16 µM | [10] 5.16 µM | [11] 17.3 µM | [12] 15.1 µM | [13] 10.3 µM | [14] 11.5 µM | [15] 14.3 µM | [16] 1.49 µM | [18] 19.7 µM | [20] 34.2 µM | [19] 16.7 µM

CCSc1[nH]c(/N=C(/NC(=O)c2ccccc2)NC(C)C)c(C(N)=O)c1C(N)=O
inactive: [1] > 10 µM | [3] > 10 µM | [5] > 10 µM | [6] > 10 µM | [7] > 10 µM | [8] > 10 µM | [9] > 10 µM | [10] > 10 µM | [11] > 10 µM | [12] > 10 µM | [13] > 10 µM | [14] > 10 µM | [15] > 10 µM | [16] > 10 µM | [18] > 10 µM | [19] > 10 µM

CCc1n[nH]c(=O)n1N1C(=O)C2CCCCC2C1=O (stereo not drawn)
inactive: [1] > 100 µM | [2] > 100 µM | [3] > 100 µM | [4] > 100 µM | [5] > 100 µM | [6] > 100 µM | [7] > 100 µM | [8] > 100 µM | [9] > 100 µM | [10] > 100 µM | [11] > 100 µM | [12] > 100 µM | [13] > 100 µM | [14] > 100 µM | [15] > 100 µM | [16] > 100 µM | [17] > 100 µM | [18] > 100 µM | [19] > 100 µM

CC(=O)/N=C1\NC(=O)/C(=C/c2ccc(/C=C3/C(=O)N/C(=N\C(C)=O)N3C)cc2)N1C
inactive: [2] > 100 µM | [3] > 100 µM | [4] > 100 µM | [5] > 100 µM | [6] > 100 µM | [7] > 100 µM | [8] > 100 µM | [9] > 100 µM | [10] > 100 µM | [11] > 100 µM | [12] > 100 µM | [14] > 100 µM | [15] > 100 µM | [16] > 100 µM | [18] > 100 µM | [20] > 100 µM | [19] > 100 µM
